Test results taken from PubChem BioAssay AID1259407 (Chemical Carcinogenesis Research Information System (CCRIS), 2018).
Calls of active or inactive are those of the source. The rule behind the calls is not given here.

Tested on: CCRIS mutagenicity, Ames/micronucleus/aberration tests
Assay: CCRIS mutagenicity studies

Measured: mutagenic call

C[C@@H]1Cc2c(Cl)cc(C(=O)NC(Cc3ccccc3)C(=O)O)c(O)c2C(=O)O1 (stereo partly specified)
active: End Point: IN VITRO CHROMOSOMAL ABERRATIONS, Test System: BOVINE LYMPHOCYTES, Metabolic Activation: NONE active; positive (structural changes) | End Point: In vivo chromosomal aberrations, Test System: Bone marrow cells, Species: Mouse, Strain/Sex: Balb/C / Male, Route: Intraperitoneal active; positive (structural changes) | End Point: In vivo micronucleus, Test System: Bone marrow polychromatic erythrocytes, Species: Rat, Strain/Sex: Sprague-Dawley/Male, Route: Oral active; positive. addition of inula crithmoides extract inhibited the response | Test System: AMES SALMONELLA TYPHIMURIUM, Strain/Indicator: TA98, Metabolic Activation: MOUSE KIDNEY S-9, NADP OR ARACHIDONIC ACID (10%), Method: MICROMETHOD active; positive | Test System: AMES SALMONELLA TYPHIMURIUM, Strain/Indicator: TA100, Metabolic Activation: RAT, LIVER, MICROSOMES, PHENOBARBITAL, Method: STANDARD PLATE active; positive
inactive: End Point: IN VIVO CHROMOSOMAL ABERRATIONS, Test System: SPLENOCYTES, Species: RAT, Strain/Sex: FISCHER 344/MALE, Route: ORAL (GAVAGE) inactive; negative | Test System: AMES SALMONELLA TYPHIMURIUM, Strain/Indicator: TA97, Metabolic Activation: HAMSTER, LIVER, S-9, AROCLOR 1254 (10 OR 30%), Method: PREINCUBATION inactive; negative | Test System: AMES SALMONELLA TYPHIMURIUM, Strain/Indicator: TA97, Metabolic Activation: HAMSTER, LIVER, S-9, AROCLOR 1254, Method: PREINCUBATION inactive; negative | Test System: AMES SALMONELLA TYPHIMURIUM, Strain/Indicator: TA97, Metabolic Activation: NONE, Method: PREINCUBATION inactive; negative | Test System: AMES SALMONELLA TYPHIMURIUM, Strain/Indicator: TA97, Metabolic Activation: RAT, LIVER, S-9, AROCLOR 1254 (10 OR 30%), Method: PREINCUBATION inactive; negative | Test System: AMES SALMONELLA TYPHIMURIUM, Strain/Indicator: TA97, Metabolic Activation: RAT, LIVER, S-9, AROCLOR 1254, Method: PREINCUBATION inactive; negative | Test System: AMES SALMONELLA TYPHIMURIUM, Strain/Indicator: TA97A, Metabolic Activation: NONE, Method: PREINCUBATION inactive; negative | Test System: AMES SALMONELLA TYPHIMURIUM, Strain/Indicator: TA97A, Metabolic Activation: RAT LIVER S-9, Method: PREINCUBATION inactive; negative | Test System: AMES SALMONELLA TYPHIMURIUM, Strain/Indicator: TA98, Metabolic Activation: HAMSTER, LIVER, S-9, AROCLOR 1254 (10 OR 30%), Method: PREINCUBATION inactive; negative | Test System: AMES SALMONELLA TYPHIMURIUM, Strain/Indicator: TA98, Metabolic Activation: HAMSTER, LIVER, S-9, AROCLOR 1254, Method: PREINCUBATION inactive; negative | Test System: AMES SALMONELLA TYPHIMURIUM, Strain/Indicator: TA98, Metabolic Activation: HUMAN HEPG2 CELL S-9, Method: PREINCUBATION inactive; negative | Test System: AMES SALMONELLA TYPHIMURIUM, Strain/Indicator: TA98, Metabolic Activation: MOUSE LIVER S-9 (10%), Method: MICROMETHOD inactive; negative | Test System: AMES SALMONELLA TYPHIMURIUM, Strain/Indicator: TA98, Metabolic Activation: NONE, Method: PREINCUBATION inactive; negative | Test System: AMES SALMONELLA TYPHIMURIUM, Strain/Indicator: TA98, Metabolic Activation: NONE, Method: STANDARD PLATE inactive; negative | Test System: AMES SALMONELLA TYPHIMURIUM, Strain/Indicator: TA98, Metabolic Activation: RAT LIVER S-9, AROCLOR 1254 (10%), Method: MICROMETHOD inactive; negative | Test System: AMES SALMONELLA TYPHIMURIUM, Strain/Indicator: TA98, Metabolic Activation: RAT LIVER S-9, Method: PREINCUBATION inactive; negative | Test System: AMES SALMONELLA TYPHIMURIUM, Strain/Indicator: TA98, Metabolic Activation: RAT, LIVER, S-9, AROCLOR 1254 (10 OR 30%), Method: PREINCUBATION inactive; negative | Test System: AMES SALMONELLA TYPHIMURIUM, Strain/Indicator: TA98, Metabolic Activation: RAT, LIVER, S-9, AROCLOR 1254, Method: PREINCUBATION inactive; negative | Test System: AMES SALMONELLA TYPHIMURIUM, Strain/Indicator: TA98, Metabolic Activation: RAT, LIVER, S-9, AROCLOR 1254, Method: STANDARD PLATE inactive; negative | Test System: AMES SALMONELLA TYPHIMURIUM, Strain/Indicator: TA100, Metabolic Activation: HAMSTER, LIVER, S-9, AROCLOR 1254 (10 OR 30%), Method: PREINCUBATION inactive; negative | Test System: AMES SALMONELLA TYPHIMURIUM, Strain/Indicator: TA100, Metabolic Activation: HAMSTER, LIVER, S-9, AROCLOR 1254, Method: PREINCUBATION inactive; negative | Test System: AMES SALMONELLA TYPHIMURIUM, Strain/Indicator: TA100, Metabolic Activation: HUMAN HEPG2 CELL S-9, Method: PREINCUBATION inactive; negative | Test System: AMES SALMONELLA TYPHIMURIUM, Strain/Indicator: TA100, Metabolic Activation: NONE, Method: STANDARD PLATE inactive; negative | Test System: AMES SALMONELLA TYPHIMURIUM, Strain/Indicator: TA100, Metabolic Activation: RAT LIVER S-9, Method: PREINCUBATION inactive; negative | Test System: AMES SALMONELLA TYPHIMURIUM, Strain/Indicator: TA100, Metabolic Activation: RAT, LIVER, S-9, AROCLOR 1254 (10 OR 30%), Method: PREINCUBATION inactive; negative | Test System: AMES SALMONELLA TYPHIMURIUM, Strain/Indicator: TA100, Metabolic Activation: RAT, LIVER, S-9, AROCLOR 1254, Method: PREINCUBATION inactive; negative | Test System: AMES SALMONELLA TYPHIMURIUM, Strain/Indicator: TA100, Metabolic Activation: RAT, LIVER, S-9, AROCLOR 1254, Method: STANDARD PLATE inactive; negative | Test System: AMES SALMONELLA TYPHIMURIUM, Strain/Indicator: TA100, Metabolic Activation: RAT, LIVER, S-9, PHENOBARBITAL, Method: PREINCUBATION inactive; negative | Test System: AMES SALMONELLA TYPHIMURIUM, Strain/Indicator: TA102, Metabolic Activation: NONE, Method: PREINCUBATION inactive; negative | Test System: AMES SALMONELLA TYPHIMURIUM, Strain/Indicator: TA102, Metabolic Activation: NONE, Method: STANDARD PLATE inactive; negative | Test System: AMES SALMONELLA TYPHIMURIUM, Strain/Indicator: TA102, Metabolic Activation: RAT LIVER S-9, Method: PREINCUBATION inactive; negative
